# Measurements: patent US12600732B2, “Bifunctional compounds for degrading BTK via ubiquitin proteosome pathway” (NURIX THERAPEUTICS, INC., priority 2019, dated 2026)
# Where two headings read alike, the source gives them in different places.
# Assays:
# [1] = biological target: T1, Ikaros (Homo sapiens, UniProt Q13422+Q96SW2); assay: Ikaros degradation in Mantle Cell Lymphoma lines (flow cytometry); assay type: cell-based; settings: treatment time 24 h
# T1 construct: endogenous in cells; host or cells: Mino, Rec-1
# Excerpt: Ikaros and Aiolos Degradation in Mantle Cell Lymphoma Lines (Ikaros and Aiolos Flow Cytometry)
# This example evaluates the IMiD activity of CTMs in cellular models of Mantle Cell Lymphoma (MCL). […] These assays are to determine potency of CTMs for degrading IMiD neo-substrates in cellular models of MCL and to generate data to inform efficacy studies in MCL xenografts.
# [2] = test system: TMD8 BTK C481S tumor cells; assay: TMD8 BTK C481S xenograft efficacy study; assay type: in vivo, mouse; settings: PO, QD
# Description: […] Tumor growth inhibition (% TGI) were calculated on the final day of measurement using the equation [1−(T−T0/C−T0)]×100, where T and C represent the mean size of tumors in the treated (T) and control (C) groups, and T0 refers to the tumor size at randomization.
# This example examines the activity of various BTK CTMs in relevant disease models, including the WT and C481S TMD8 model, which models B cell malignancies with/without inhibitor-driven BTK mutations at C481.
# [3] = PK data for BTK CTMs (in vivo plasma concentrations); settings: for Vd: read-out: Volume of Distribution
# Excerpt: The present example evaluates in vivo plasma concentrations of BTK CTMs to develop PK-PD-efficacy relationship and predict human exposure.
# [4] = test system: CRBN neo-substrates; assay: CRBN neo-substrate levels / IMiD activity in MOLT4 and TMD8 cells (FIGS. 10-12); assay type: cell-based; settings: FIG. 12
# Excerpt: FIGS. 10A and 10B provide effects of compounds 73, 72, 121, and 44, and control compounds, on neo-substrate and ITK or BTK levels after twenty-four hours in MOLT4 cells (FIG. 10A) and TMD8 cells (FIG. 10B).
# FIGS. 11A and 11B provide effects of compounds 44, 72, and 149, and control compounds, on CRBN neo-substrate and ITK levels in MOLT4 cells (FIG. 11A) and TMD8 cells (FIG. 11B).
# FIG. 12 provides effects of compounds 130, 149, and 44 on ITK levels and IMiD activity.
# [5] = Compound plasma exposure in cyno DRF study; assay type: in vivo; settings: cynomolgus monkey, po
# [6] = test system: TMD8 cells; assay: Cell viability assay (CellTiter-Glo), TMD8 cells
# [7] = biological target: BTK (Homo sapiens, UniProt Q06187); assay: BTK degradation (Total BTK HTRF) in Mino cells (Mantle Cell Lymphoma model); assay type: cell-based; parameters: endogenous in cells; host or cells: TMD8, Mino, Rec-1; settings: treatment time 4 h
# Description: BTK levels were determined using Cisbio Total-BTK HTRF (Homologous Time-Resolved Fluorescence) kit (63ADK064PEG) according to the manufacturer's protocol. Briefly, cells were incubated in 1× supplied lysis buffer for 30 minutes. In an opaque white low volume 96-well plate (Cisbio, 66PL96005), cell lysate was combined with two different specific BTK antibodies, one conjugated with Eu^3+-Cryptate FRET donor and one conjugated with d2 FRET acceptor. Assay controls include wells containing cell lysate with only the Eu^3+-Cryptate FRET donor antibody and wells containing both HTRF antibodies and lysis buffer without cells or control lysate provided by Cisbio. HTRF ratio was calculated as (acceptor signal at 665 nm/donor signal at 620 nm)×10^4. Background HTRF levels were determined from the control well containing the donor, but no acceptor, antibody. Background HTRF levels were subtracted from all samples. Readouts were reported as HTRF levels relative to HTRF levels of DMSO-treated cells. Four-parameter non-linear regressions were performed in GraphPad Prism 7.02 to obtain DC50 values.
# BTK Degradation (Total BTK HTRF) at Four Hours in Mino Cells
# This example evaluates the potency of CTMs in a model of Mantle Cell Lymphoma (MCL). To evaluate potential therapeutic indications, BTK CTMs were assayed in models of Mantle Cell Lymphoma as with the TMD8 cells (ABC-DLBCL) above. Tested CTMs had similar potencies for BTK degradation in the MCL cell lines (Mino and Rec-1) and TMD8 cells.
# [8] = test system: TMD8 C481S cells; assay: Cell viability assay (CellTiter-Glo), TMD8 C481S cells
# [9] = Monkey cynomolgus, 0.75 mg/kg IV
# [10] = Rat Sprague-Dawley, 10 mg/kg PO
# [11] = Rat Sprague-Dawley, 30 mg/kg PO
# T1 sequence (Q13422 whole entry): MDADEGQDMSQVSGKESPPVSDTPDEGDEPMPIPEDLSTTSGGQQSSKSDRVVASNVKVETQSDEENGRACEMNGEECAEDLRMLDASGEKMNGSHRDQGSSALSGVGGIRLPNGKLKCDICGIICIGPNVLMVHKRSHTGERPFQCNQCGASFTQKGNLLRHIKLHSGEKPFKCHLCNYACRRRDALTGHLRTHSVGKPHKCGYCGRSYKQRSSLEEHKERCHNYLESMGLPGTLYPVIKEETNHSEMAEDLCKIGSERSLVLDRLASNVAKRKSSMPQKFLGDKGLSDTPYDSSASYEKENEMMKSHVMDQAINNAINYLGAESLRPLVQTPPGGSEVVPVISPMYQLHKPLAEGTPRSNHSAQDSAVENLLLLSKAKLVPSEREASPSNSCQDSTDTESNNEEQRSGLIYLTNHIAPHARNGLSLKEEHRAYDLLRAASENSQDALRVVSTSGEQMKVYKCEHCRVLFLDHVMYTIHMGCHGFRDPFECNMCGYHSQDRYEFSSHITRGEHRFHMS
# T1 sequence (Q96SW2 whole entry): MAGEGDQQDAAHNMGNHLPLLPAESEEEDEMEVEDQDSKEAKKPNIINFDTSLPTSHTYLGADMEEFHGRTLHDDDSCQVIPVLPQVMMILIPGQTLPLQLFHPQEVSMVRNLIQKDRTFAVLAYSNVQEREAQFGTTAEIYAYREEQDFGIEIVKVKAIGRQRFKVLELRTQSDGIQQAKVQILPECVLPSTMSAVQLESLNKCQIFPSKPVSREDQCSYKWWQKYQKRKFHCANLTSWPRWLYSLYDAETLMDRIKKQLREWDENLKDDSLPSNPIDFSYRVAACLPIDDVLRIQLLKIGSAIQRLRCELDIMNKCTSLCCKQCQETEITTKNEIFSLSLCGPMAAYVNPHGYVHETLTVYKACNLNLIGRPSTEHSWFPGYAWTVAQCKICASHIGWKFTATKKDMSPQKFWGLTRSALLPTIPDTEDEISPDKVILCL
# T1 sequence (Q16531 whole entry partner): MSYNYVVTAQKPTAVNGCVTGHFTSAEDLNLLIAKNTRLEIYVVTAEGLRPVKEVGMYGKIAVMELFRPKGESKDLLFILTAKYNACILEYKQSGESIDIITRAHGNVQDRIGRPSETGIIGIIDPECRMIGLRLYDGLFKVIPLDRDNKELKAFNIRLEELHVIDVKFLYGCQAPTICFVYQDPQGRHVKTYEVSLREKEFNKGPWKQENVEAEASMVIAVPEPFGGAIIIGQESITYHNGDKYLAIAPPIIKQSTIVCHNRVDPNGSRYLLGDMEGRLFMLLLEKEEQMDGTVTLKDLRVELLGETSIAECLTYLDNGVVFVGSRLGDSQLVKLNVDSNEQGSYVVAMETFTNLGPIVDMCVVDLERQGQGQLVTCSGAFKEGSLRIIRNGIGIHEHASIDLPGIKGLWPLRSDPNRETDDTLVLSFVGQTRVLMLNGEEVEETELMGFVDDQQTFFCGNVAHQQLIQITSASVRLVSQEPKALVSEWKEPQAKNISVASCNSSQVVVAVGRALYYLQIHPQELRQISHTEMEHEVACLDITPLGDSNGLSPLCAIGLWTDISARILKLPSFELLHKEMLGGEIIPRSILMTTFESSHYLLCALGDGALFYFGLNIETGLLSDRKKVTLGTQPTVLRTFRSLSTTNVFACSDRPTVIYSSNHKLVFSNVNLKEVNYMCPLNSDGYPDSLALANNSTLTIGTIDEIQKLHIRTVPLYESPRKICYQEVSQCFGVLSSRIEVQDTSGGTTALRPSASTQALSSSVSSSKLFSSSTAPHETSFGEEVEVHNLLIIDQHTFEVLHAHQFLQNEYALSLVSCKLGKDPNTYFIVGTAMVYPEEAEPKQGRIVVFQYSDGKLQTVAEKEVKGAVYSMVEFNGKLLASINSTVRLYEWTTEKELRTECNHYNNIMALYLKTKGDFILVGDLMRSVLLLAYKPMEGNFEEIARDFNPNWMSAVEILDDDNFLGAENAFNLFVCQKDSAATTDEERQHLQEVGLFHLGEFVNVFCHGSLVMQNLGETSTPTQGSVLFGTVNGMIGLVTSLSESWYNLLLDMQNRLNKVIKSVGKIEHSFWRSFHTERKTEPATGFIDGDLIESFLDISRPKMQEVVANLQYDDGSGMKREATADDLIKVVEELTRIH
# BTK, sequence (Q06187 whole entry): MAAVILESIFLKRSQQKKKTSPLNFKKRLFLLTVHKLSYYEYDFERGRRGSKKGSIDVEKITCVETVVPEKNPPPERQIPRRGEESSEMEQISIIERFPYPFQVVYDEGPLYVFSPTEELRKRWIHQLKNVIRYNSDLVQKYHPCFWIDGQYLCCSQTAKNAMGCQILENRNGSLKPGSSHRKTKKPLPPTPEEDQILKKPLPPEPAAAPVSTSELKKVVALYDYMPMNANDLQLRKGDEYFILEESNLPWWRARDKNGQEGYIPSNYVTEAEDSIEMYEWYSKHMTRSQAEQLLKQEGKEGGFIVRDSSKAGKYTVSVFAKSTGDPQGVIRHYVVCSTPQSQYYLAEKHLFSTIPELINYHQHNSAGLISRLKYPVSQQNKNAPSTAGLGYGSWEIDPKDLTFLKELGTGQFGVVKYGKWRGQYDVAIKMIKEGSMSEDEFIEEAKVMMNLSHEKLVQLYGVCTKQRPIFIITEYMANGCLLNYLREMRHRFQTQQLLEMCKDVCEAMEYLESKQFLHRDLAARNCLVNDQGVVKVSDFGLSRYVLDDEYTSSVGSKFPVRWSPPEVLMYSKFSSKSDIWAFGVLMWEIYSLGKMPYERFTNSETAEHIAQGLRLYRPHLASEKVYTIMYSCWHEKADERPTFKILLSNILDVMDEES
smiles,measurement,setting,value
CN1CCN([C@H]2CCCN(c3cnc(C(N)=O)c(Nc4ccc(C5CCN(CC6CCN(c7ccc(C(=O)NC8CCC(=O)NC8=O)nc7)CC6)CC5)cc4)n3)C2)C1=O (some centres unmarked) [Compound 130],DC50,[1]; Mino cells,> 2000 nM
same,DC50,[1]; Rec-1 cells,> 2000 nM
same,Tumor Growth Inhibition (relative to vehicle),"[2]; 10 mg/kg, 23 days of dosing",58%
same,Tumor Growth Inhibition (relative to vehicle),"[2]; 10 mg/kg, 24 days of dosing",90%
same,Tumor Growth Inhibition (relative to vehicle),"[2]; 30 mg/kg, 23 days of dosing",79%
same,Tumor Growth Inhibition (relative to vehicle),"[2]; 30 mg/kg, 24 days of dosing",100%
same,Tumor Growth Inhibition (relative to vehicle),"[2]; 90 mg/kg, 24 days of dosing",100%
same,AUC,"[3]; Dog Beagle, 1 mg/kg IV",0.16 µM·h
same,clearance,"[3]; Dog Beagle, 1 mg/kg IV",118 mL/min/kg
same,Vd,"[3]; Dog Beagle, 1 mg/kg IV",56 L/kg
same,AUC,"[3]; Dog Beagle, 10 mg/kg PO",0.17 µM·h
same,bioavailability,"[3]; Dog Beagle, 10 mg/kg PO",10%
same,AUC,"[3]; Dog Beagle, 30 mg/kg PO",0.23 µM·h
same,AUC,[3]; [9],0.17 µM·h
same,clearance,[3]; [9],90.9 mL/min/kg
same,Vd,[3]; [9],16 L/kg
same,AUC,"[3]; Monkey cynomolgus, 10 mg/kg PO",0.028 µM·h
same,bioavailability,"[3]; Monkey cynomolgus, 10 mg/kg PO",1%
same,AUC,"[3]; Monkey cynomolgus, 30 mg/kg PO",0.45 µM·h
same,AUC,"[3]; Mouse Balb/c, 1 mg/kg IV",3.4 µM·h
same,clearance,"[3]; Mouse Balb/c, 1 mg/kg IV",6 mL/min/kg
same,Vd,"[3]; Mouse Balb/c, 1 mg/kg IV",0.72 L/kg
same,AUC,"[3]; Mouse Balb/c, 10 mg/kg PO",5.81 µM·h
same,bioavailability,"[3]; Mouse Balb/c, 10 mg/kg PO",17%
same,AUC,"[3]; Mouse Balb/c, 30 mg/kg PO",2.3 µM·h
same,AUC,"[3]; Mouse CD-1, 1 mg/kg IV",1.7 µM·h
same,clearance,"[3]; Mouse CD-1, 1 mg/kg IV",11.6 mL/min/kg
same,Vd,"[3]; Mouse CD-1, 1 mg/kg IV",1.4 L/kg
same,AUC,"[3]; Mouse CD-1, 10 mg/kg PO",5.2 µM·h
same,bioavailability,"[3]; Mouse CD-1, 10 mg/kg PO",33%
same,AUC,"[3]; Rat Sprague-Dawley, 1 mg/kg IV",0.18 µM·h
same,clearance,"[3]; Rat Sprague-Dawley, 1 mg/kg IV",99.5 mL/min/kg
same,Vd,"[3]; Rat Sprague-Dawley, 1 mg/kg IV",32 L/kg
same,AUC,[3]; [10],0.69 µM·h
same,bioavailability,[3]; [10],32%
same,AUC,[3]; [11],1.62 µM·h
same,bioavailability,[3]; [11],7%
same,IMiD activity,[4],did not have IMiD activity
same,AUC,"[5]; 10 mg/kg, 10 mg/kg PO, 1 day of dosing",0.172 µM·h
same,AUC,"[5]; 30 mg/kg, 30 mg/kg PO, 1 day of dosing",0.582 µM·h
same,Cmax,"[5]; 100 mg/kg, 100 mg/kg PO, 1 day of dosing",96 nM
same,AUC,"[5]; 100 mg/kg, 100 mg/kg PO, 14 days of dosing",3.84 µM·h
same,EC50,"[6]; Homo sapiens, TMD8, 72 h",1.5 nM
same,EMAX (% viable cells),"[6]; TMD8 cells, treatment time 72 h",27%
same,DC50,[7],0.58 nM
same,EC50,"[8]; Homo sapiens, TMD8, 72 h",4.83 nM
same,EMAX (% viable cells),"[8]; TMD8 C481S cells, treatment time 72 h",33%
